Experimental data reported in patent publication US5843925A, “Methods for inhibiting angiogenesis, proliferation of endothelial or tumor cells and tumor growth” (American Cyanamid Company, priority 1994, dated 1998).
Structures can show the parent of a compound that is named as a salt. Where two headings read alike, the source gives them in different places.

Experiments:
Assay type in all cases: cell-based
CACO2 = assay: Antiproliferative activity in human tumor cell lines (CACO2); details: Caco-2, CACO2 colon tumor cell line
Procedure: (§1) PROTOCOLS 1, 2, and 3 are described in greater detail hereinbelow. In general, according to PROTOCOLS 1 and 2, the target ABAE and/or Human Tumor cells are exposed to the compound of Formula I for 48 hours. PROTOCOL 3 exposes ABAE cells to the compounds for 4 days. A detailed description of the protocol is as follows:
(§2) The antiproliferative activity of the compounds of Formula I of the present invention is evaluated in a panel comprised of human tumor cell lines and an adult bovine aortic endothelial cell line (ABAE). The human tumor cell lines are from
All cell lines are maintained in log phase in RPMI 1640 media, supplemented with 5% fetal calf serum, penicillin/streptomycin and 2 mM L-glutamine. Cultures are renewed after 20 passages with cells from a fresh stock of batch-frozen early passage cells. Cell lines are routinely checked for mycoplasma contamination (Genprobe). In a laminar flow hood, cells (1-5×10^4) are plated into 96-well microtiter plates in a volume of 0.1 ml/well with a bulk microtiter dispenser (Denley). […] At this concentration, dimethylsulfoxide has no effect on cell growth. Compounds are added using a Tomtec dispenser which simultaneously dispenses from one 96-well plate, containing the drug dilutions, to the plates containing the cells. After two days of continuous drug exposure, 50% cold trichloroacetic acid (TCA) is added to 10% final concentration to fix the cells, and after 60 minutes at 4° C., the TCA is aspirated and the plates are washed 5 times with deionized water using a microtiter plate washer. The number of cells on the plate are quantitated using a protein dye-binding assay (Monks et al., 1991). A 0.4% solution of the dye, sulforhodamine B, in glacial acetic acid is added to the plates, and the plates are washed 5 times with 1% glacial acetic acid using the automatic plate washed. The bound stain is solubilized with 0.1 ml of 10 mM Tris base. The optical densities are read from an automatic spectrophotometric plate reader (Dynatech) directly to a main frame computer (VAX 8600).
(§3) Positive controls, that include standard chemotherapeutic drugs (i.e., adriamycin, cisplatin, etc.), are included in every experiment.
(§4) Background optical density measurements (complete media-cells, and complete media+drug-cells) are automatically subtracted from the appropriate control and test wells. Mean values and standard errors are determined from duplicate wells. A measure is also made of the optical density at time when the drugs are added. The number of cells after treatment (P), as % of control, is calculated for every concentration of drug, as follows: [formula] wherein: T is optical density measurement for treated cells after 48 hours;
(§5) C is optical density measurement for untreated cells after 48 hours;
(§6) Co is optical density measurement for cells at the time of drug addition.
(§7) IC50 of growth inhibition is calculated from the sets of P values using the RS-1 data package (BBN Software).
(§8) Antiproliferative Activity in Human Tumor Cell Lines
(§9) The antiproliferative activity of the compounds of Formula I is evaluated in the panel comprised of human tumor cell lines as listed in PROTOCOL 1. This assay is a slight modification of PROTOCOL 1. The modifications include:
(§10) 1) each concentration for each compound is tested in a single well;
(§11) 2) compounds are tested at 20, 4, 0.8, 0.16 microgram/ml and additionally in some experiments at 100 and 0.32 microgram/ml;
(§12) 3) samples are pipetted into a 96-well plate for each of the cell lines by a Beckman Biomek 1000 SL robot;
(§13) 4) after fixing with TCA each well is washed with 0.35 ml distilled water twice, not five times;
(§14) 5) after staining with sulforhodamine B each well is washed 3 times, not five times;
6) the growth inhibition (I) as % of control, is calculated using the RS-1 data package (BBN Software), for every concentration of drug, as follows: [formula] wherein: T is optical density measurement for treated cells after 48 hours; […]

A2780/DDP = assay: Antiproliferative activity in human tumor cell lines (A2780/DDP); details: A2780/DDP ovarian tumor cell line
Procedure: as §1, §2
Cultures are renewed after 20 passages with cells from a fresh stock of batch-frozen early passage cells. Cell lines are routinely checked for mycoplasma contamination (Genprobe). In a laminar flow hood, cells (1-5×10^4) are plated into 96-well microtiter plates in a volume of 0.1 ml/well with a bulk microtiter dispenser (Denley). […] Compounds are added using a Tomtec dispenser which simultaneously dispenses from one 96-well plate, containing the drug dilutions, to the plates containing the cells. After two days of continuous drug exposure, 50% cold trichloroacetic acid (TCA) is added to 10% final concentration to fix the cells, and after 60 minutes at 4° C., the TCA is aspirated and the plates are washed 5 times with deionized water using a microtiter plate washer. […] A 0.4% solution of the dye, sulforhodamine B, in […] is added to the plates, and the plates are washed 5 times with 1% glacial acetic acid using the automatic plate washed. The bound stain is solubilized with 0.1 ml of 10 mM Tris base. The optical densities are read from an automatic spectrophotometric plate reader (Dynatech) directly to a main frame computer (VAX 8600).
as §3, §4, §5, §6, §7, §8, §9, §10, §11, §12, §13, §14
6) the growth inhibition (I) as % of control, is calculated using the RS-1 data package (BBN Software), for every concentration of drug, as follows: [formula] wherein: T is optical density measurement for treated cells after 48 hours;
7) IC50 of growth inhibition is determined graphically from dose response curves, as is known in the art.

[1] = system: Adult Bovine Aortic Endothelial (ABAE) cell line; assay: Antiproliferative activity in Adult Bovine Aortic Endothelial (ABAE) cell line, PROTOCOL 3; details: for IC50: Bos taurus, 96 h, ABAE cells
Procedure: The antiproliferative activity of the compounds of Formula I in an Adult Bovine Aortic Endothelial (ABAE) cell line and in Human Tumor cells lines is evaluated in three similar assays that measure growth inhibition. The assays are identified as follows:
as §1
Antiproliferative Activity in Adult Bovine Aortic Endothelial (ABAE) Cell Line
ABAE cells are grown in DMEM media (Mediatech Washington, D.C.) supplemented with 10% calf serum (Hyclone). ABAE cells are plated in 24-well dishes at 8,000 cells/well, followed by the addition of increasing concentrations of 7-[substituted amino]-9-[(substituted glycyl)amido]-6-demethyl-6-deoxytetra-cyclines. After four days, the cells are detached and counted. […] The growth inhibition (I) as % of control is calculated as follows: [formula] wherein: Nc is the number of cells in untreated wells;
Nt is the number of cells in treated wells;
No is the number of plated cells.
IC50 of growth inhibition is determined from the sets of I values plotted by Kaleidograph software (Abelbeck Software).
Table 2 presents the results depicting the antiproliferative activity of the compounds of Formula I against an adult bovine aortic endothelial cell line (ABAE), as evaluated by PROTOCOL 1 and PROTOCOL 3. The results are presented in terms of IC50 and are as follows.

Row | Structure (SMILES) | IC50 (CACO2) | IC50 (A2780/DDP) | activity upon incubation with cells ([1]; 4 day assay (Protocol 3)) | IC50 ([1]; 4 day assay (Protocol 3), FIG. 1 text, read-out: inhibits 50% of cell growth at) | IC50 ([1]; 4 days exposure, read-out: IC50 PROTOCOL 3)
1 | CCCCCCNCC(=O)Nc1cc(N(C)C)c2c(c1O)C(=O)C1=C(O)[C@]3(O)C(=O)C(C(N)=O)=C(O)[C@@H](N(C)C)C3CC1C2 (stereo partly drawn) [Example 4, [4S-(4α,12aα)]-4,7-Bis(dimethylamino)-9-[(hexylamino)acetyl]amino]-1,4,4a,5,5a,6,11,12a-octahydro-3,10,12,12a-tetrahydroxy-1,11-dioxo-2-naphthacenecarboxamide dihydrochloride] | 1.9 µg/mL | 2.3 µg/mL |  |  | 
2 | CCCCCCCNCC(=O)Nc1cc(N(C)C)c2c(c1O)C(=O)C1=C(O)[C@]3(O)C(=O)C(C(N)=O)=C(O)[C@@H](N(C)C)C3CC1C2 (stereo partly drawn) [Example 5, [4S-(4α,12aα)]-4,7-Bis(dimethylamino)-9-[[(heptylamino)acetyl]amino]-1,4,4a,5,5a,6,11,12a-octahydro-3,10,12,12a-tetrahydroxy-1,11-dioxo-2-naphthacenecarboxamide dihydrochloride] | 3.7 µg/mL | 2.5 µg/mL |  |  | 
3 | CN(C)CC(=O)Nc1cc(N(C)C)c2c(c1O)C(=O)C1=C(O)[C@]3(O)C(=O)C(C(N)=O)=C(O)[C@@H](N(C)C)C3CC1C2 (stereo partly drawn) [Example 2, [4S-(4a,12aa-1-4,7-Bis(dimethylamino)-9-[[(dimethylamino)acetyl]amino]]-1,4,,4a,5,5a,6,11,12a-octahvdro-3,10,12,12a-tetrahydroxy-1,11-dioxo-2-napththacenecarboxamidedihydrochloride] | 5.1 µg/mL | 7 µg/mL | retains its activity | ~3 µg/mL | 3 µg/mL
